Broadly, the IC50 is the concentration at which inhibition is half-maximal. High values mean weaker potency, low ones greater potency.

This is an account of results in patent publication US10472352B2, “Rac inhibitors” (Geneyus LLC, priority 2017, dated 2019).

The target of one assay is T1, Rac1 protein (Homo sapiens, UniProt P63000).
T1 construct: purchased Cytoskeleton Inc. RC01
As to the kind of experiment: Fluorescence Polarization Assay (Rac1 FP). The class given is binding. The conditions noted are these: 125 nM his-tagged Rac1, 12.5 nM Bodipy-TR GTPγS, 30 minutes at 37° C. On the procedure: Direct binding of Rac1 compound inhibitors to Rac1 protein was performed using fluorescence polarization (FP). Briefly, Rac1 inhibitors were initially dissolved in DMSO and then serial drug dilutions in exchange buffer (20 mM Tris pH 7.5, 50 mM NaCl, 1 mM MgCl, 1 mM EDTA) were prepared in a flat black 96-well half-area plate (Greiner). Recombinant his-tagged Rac1 protein (Cytoskeleton Inc. Cat. # RC01) was added to the inhibitors at a final concentration of 125 nM along with 12.5 nM Bodipy-TR GTPγS (Life Technologies Inc. Cat. # G35780) in exchange buffer and incubated for 30 minutes at 37° C. in exchange buffer. After 30 minutes of incubation. FP was measured on the M1000 Pro (Tecan) fluorescent plate reader with 590 nm±5 nm excitation and 625 nm±5 nm emission spectra settings.
On the technique in general: Fluorescence polarisation rises when a labelled molecule tumbles more slowly, as on binding a larger partner.

The target of assay [1] is His-Rac1 / GST-PBD (PAK Binding Domain) (Homo sapiens, UniProt P63000). The assay can be described thus: Rac Activation AlphaScreen Assay (Rac1 AS). Type of assay: biochemical. Conditions: 500 nM GTPγS, 37° C., 1 hour; 'positive' = signal generated was higher than the positive control. The procedure: AlphaScreen® assays were performed in 96-well microplates in a final reaction volume of 60 μl. Recombinant His-Rac1, recombinant GST-PBD (PAK Binding Domain), donor and acceptor beads (PerkinElmer), and inhibitors were incubated in exchange buffer (20 mM Tris pH 7.5, 50 mM NaCl, 1 mM MgCl2, 1 mM EDTA, 500 nM GTPγS (guanosine 5′-[γ-thio]triphosphate)) at 37° C. Readings were performed on a Tecan M1000 pro microplate reader after 1 hour.
On the technique in general: In Alpha technology, singlet oxygen from a donor bead excites a nearby acceptor bead.

Assay [2] has as its system MCF-7 human breast cancer cell line. The assay can be described thus: Cell Viability Assay (MCF7), PrestoBlue. Type of assay: cell-based. The conditions noted are these: MCF7, 72 h, MCF-7 cells, three days after drug treatment. On the procedure:
In order to determine a compound's effect on cell viability, PrestoBlue assays were performed as previously described by Kuhn et al. (2013) with modifications. MCF-7 human breast cancer and IGR-1 human melanoma cell lines were seeded into 96-well plates 24 hours prior to addition of drug. Cells were treated with 0 to 200 μM (11 concentrations) of compound solubilized in DMSO, adjusting the final concentration of DMSO to 1% in the well. Three days after drug treatment, cell viability was measured by adding PrestoBlue (Life Technologies Ltd.; cat. No. A13262) reagent directly to wells containing media/drug to reach a final concentration of 10%. PrestoBlue is a modified molecule of the common Alamar Blue probe used to determine viability based on the ability of a cell to metabolize a nonfluorescent compound (resazurin) to a florescent molecule (resorufin). Following a 1 hour incubation period, total well fluorescence was measured using the microplate reader M1000 pro (Tecan) with excitation 560-5 nm and emission 590-5 nm. […] The percentage of living cells was then computed by comparison with control wells. Kuhn, Jonas et al., Assay and Drug Development Technologies, March 2013, Label-Free Cytotoxicity Screening Assay by Digital Holographic Microscopy.

In the case of `FC(F)(F)c1ccc2c(SCCCCCNc3ccc(N4CCNCC4)cc3)ccnc2c1` [Compound 0033240, 4-(piperazin-1-yl)-N-(5-{[7-(trifluoromethyl)quinolin-4-yl]sulfanyl}pentyl)aniline], the figures for the IC50 (against Rac1 protein; in assay [1]; in assay [2]) were 9.67 µM, 0.98 µM and 3.8 µM, respectively.

With `NC1CCN(c2ccc(NCCCCCCSc3ccnc4cc(C(F)(F)F)ccc34)cc2)CC1` [Compound 0033278, 1-{4-[(6-{[7-(trifluoromethyl)quinolin-4-yl]sulfanyl}hexyl)amino]phenyl} piperidin-4-amine], the figures for the IC50 (against Rac1 protein; in assay [1]; in assay [2]) were 2.32 µM, 1.1 µM and 7.6 µM, respectively.

Consider `O=C1CNCCN1c1ccc(NCCCCCCSc2ccnc3cc(C(F)(F)F)ccc23)cc1` [Compound 0033283, 1-{4-[(6-{[7-(trifluoromethyl)quinolin-4-yl]sulfanyl)hexyl}amino]phenyl} piperazin-2-one], for which the IC50 against Rac1 protein was determined as 3.07 µM; in assay [1], 6.3 µM; in assay [2] it was 5.6 µM.

Turning to `O=C1COCCN1c1cccc(NCCCCCCSc2ccnc3cc(C(F)(F)F)ccc23)c1` [Compound 0033306, 4-(3-{(6-{[7-(trifluoromethyl)quinolin-4-yl]sulfanyl)hexyl}amino]phenyl} morpholin-3-one], the IC50 on Rac1 protein worked out at 1.54 µM; in assay [1], 8.2 µM; in assay [2] it was 3.58 µM.
